pIC50: −log10 of the molar value. Values joined by “and” are separate entries in the source; they are usually repeats but may differ in a detail not shown here. Identical values can stand only once.
System: 616215-338-R-J1-PDC complex spheroids, viability % test/control
Assay: Anticancer human tumor 616215-338-R-J1-PDC patient-derived colon adenocarcinoma cell line growth inhibition [CLK]
Details: for viability, T/C: stronger effect = lower value; active = viability on the fitted dose curve at most 10% of control; inactive = the rest
Outline: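 Multi-cell-type spheroids combined patient-derived tumor cells with HUVEC endothelial cells and human mesenchymal stem cells. Paired agents were dosed in half-log steps down from about clinical Cmax, or from 10 microM where Cmax was unknown.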

[1] = curve of first compound, second compound 0.0316 µM
[2] = curve of first compound, second compound 0.1 µM
[3] = curve of first compound, second compound 0.316 µM
[4] = curve of first compound, second compound 1 µM
[5] = curve of first compound, second compound 3.16 µM
[6] = curve of first compound, second compound 10 µM
[7] = second compound 0.0316 µM, first compound 0.0316 µM
[8] = second compound 0.0316 µM, first compound 0.1 µM
[9] = second compound 0.0316 µM, first compound 0.316 µM
[10] = second compound 0.0316 µM, first compound 1 µM
[11] = second compound 0.0316 µM, first compound 3.16 µM
[12] = second compound 0.0316 µM, first compound 10 µM
[13] = second compound 0.1 µM, first compound 0.0316 µM
[14] = second compound 0.1 µM, first compound 0.1 µM
[15] = second compound 0.1 µM, first compound 0.316 µM
[16] = second compound 0.1 µM, first compound 1 µM
[17] = second compound 0.1 µM, first compound 3.16 µM
[18] = second compound 0.1 µM, first compound 10 µM
[19] = second compound 0.316 µM, first compound 0.0316 µM
[20] = second compound 0.316 µM, first compound 0.1 µM
[21] = second compound 0.316 µM, first compound 0.316 µM
[22] = second compound 0.316 µM, first compound 1 µM
[23] = second compound 0.316 µM, first compound 3.16 µM
[24] = second compound 0.316 µM, first compound 10 µM
[25] = second compound 1 µM, first compound 0.0316 µM
[26] = second compound 1 µM, first compound 0.1 µM
[27] = second compound 1 µM, first compound 0.316 µM
[28] = second compound 1 µM, first compound 1 µM
[29] = second compound 1 µM, first compound 3.16 µM
[30] = second compound 1 µM, first compound 10 µM
[31] = second compound 3.16 µM, first compound 0.0316 µM
[32] = second compound 3.16 µM, first compound 0.1 µM
[33] = second compound 3.16 µM, first compound 0.316 µM
[34] = second compound 3.16 µM, first compound 1 µM
[35] = second compound 3.16 µM, first compound 3.16 µM
[36] = second compound 3.16 µM, first compound 10 µM
[37] = second compound 10 µM, first compound 0.0316 µM
[38] = second compound 10 µM, first compound 0.1 µM
[39] = second compound 10 µM, first compound 0.316 µM
[40] = second compound 10 µM, first compound 1 µM
[41] = second compound 10 µM, first compound 3.16 µM
[42] = second compound 10 µM, first compound 10 µM
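Note: spheroids exposed to agents for 7 days.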
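Throughout, for viability, T/C: 100% = DMSO vehicle wells.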

CC(Nc1ccc2c(c1)OCCn1cc(N3C(=O)OCC3C(F)F)nc1-2)C(N)=O (stereo not given) + CN1CCN(c2cc(C(=O)Nc3cc4cc(-c5cnn(C)c5)ccc4cn3)ccn2)CC1
> 7.50: pIC50 [3] | pIC50 [4] | pIC50 [5] | pIC50 [6]
< 5.00: pIC50 [1]
5.70: pIC50 [2]
active: viability, T/C [25] 0.14% | viability, T/C [26] 0.18% | viability, T/C [27] 0.22% | viability, T/C [28] 0.1% | viability, T/C [29] 0.88% | viability, T/C [30] 0.09% | viability, T/C [31] 0.11% | viability, T/C [32] 0.15% | viability, T/C [33] 1.65% | viability, T/C [34] 1.21% | viability, T/C [35] 1.32% | viability, T/C [36] 1.75% | viability, T/C [37] 0.13% | viability, T/C [38] 0.18% | viability, T/C [39] 1.39% | viability, T/C [40] 0.23% | viability, T/C [41] 0.22% | viability, T/C [42] 0.23%
inactive: viability, T/C [7] 94.6% | viability, T/C [8] 108% | viability, T/C [9] 101% | viability, T/C [10] 92% | viability, T/C [11] 78.3% | viability, T/C [12] 52.4% | viability, T/C [13] 105% | viability, T/C [14] 97.9% | viability, T/C [15] 75% | viability, T/C [16] 59.2% | viability, T/C [17] 44.7% | viability, T/C [18] 38% | viability, T/C [19] 26.2% | viability, T/C [20] 22% | viability, T/C [21] 17.6% | viability, T/C [22] 13.8% | viability, T/C [23] 12.9% | viability, T/C [24] 10.4%

CC(Nc1ccc2c(c1)OCCn1cc(N3C(=O)OCC3C(F)F)nc1-2)C(N)=O (stereo not given)
< 5.00: pIC50 (curve of compound)
inactive: viability, T/C (compound 0.0316 µM) 89.4% and 107% | viability, T/C (compound 0.1 µM) 99.5% and 103% | viability, T/C (compound 0.316 µM) 105% and 108% | viability, T/C (compound 1 µM) 101% and 100% | viability, T/C (compound 3.16 µM) 99.9% and 110% | viability, T/C (compound 10 µM) 90.6% and 100%

Nc1ccccc1NC(=O)c1ccc(CNC(=O)OCc2cccnc2)cc1
inactive: viability, T/C (compound 0.0316 µM) 102% and 86.2% | viability, T/C (compound 0.1 µM) 98.2% and 95.1% | viability, T/C (compound 0.316 µM) 101% and 81.6% | viability, T/C (compound 1 µM) 107% and 92.8% | viability, T/C (compound 3.16 µM) 55.6% and 80.4% | viability, T/C (compound 10 µM) 13.5% and 14.7%
5.43 and 5.27: pIC50 (curve of compound)

CCc1c2c(nc3ccc(O)cc13)-c1cc3c(c(=O)n1C2)COC(=O)[C@]3(O)CC
11% and 16.1%: viability, T/C (compound 0.316 µM)
active: viability, T/C (compound 1 µM) 5.51% and 7.45%
7.70 and 7.76: pIC50 (curve of compound)
inactive: viability, T/C (compound 0.00316 µM) 110% and 111% | viability, T/C (compound 0.01 µM) 69.5% and 63.4% | viability, T/C (compound 0.0316 µM) 36.6% and 33.2% | viability, T/C (compound 0.1 µM) 17.5% and 24.2%

COc1ccc([C@@H](O)c2cc(-c3ncnc4cc(N5CCOCC5)ccc34)c(F)cc2Cl)nn1
< 5.00: pIC50 (curve of compound)
inactive: viability, T/C (compound 0.0316 µM) 102% and 93.5% | viability, T/C (compound 0.1 µM) 106% and 104% | viability, T/C (compound 0.316 µM) 111% and 108% | viability, T/C (compound 1 µM) 107% and 99.3% | viability, T/C (compound 3.16 µM) 112% and 118% | viability, T/C (compound 10 µM) 77.8% and 78.4%

C=CC(=O)Nc1cc(Nc2nccc(-c3cn(C)c4ccccc34)n2)c(OC)cc1N(C)CCN(C)C + CNC(=O)c1ccc(Nc2nc(OC3CCCC3)c3c(-c4ccc5nc(C)oc5c4)c[nH]c3n2)c(OC)c1
inactive: viability, T/C (second compound 0.0316 µM, first compound 0.000949 µM) 94.3% | viability, T/C (second compound 0.0316 µM, first compound 0.003 µM) 87.8% | viability, T/C (second compound 0.0316 µM, first compound 0.00949 µM) 90.3% | viability, T/C (second compound 0.0316 µM, first compound 0.03 µM) 89.4% | viability, T/C (second compound 0.0316 µM, first compound 0.0949 µM) 98.7% | viability, T/C (second compound 0.0316 µM, first compound 0.3 µM) 95.8% | viability, T/C (second compound 0.1 µM, first compound 0.000949 µM) 52.1% | viability, T/C (second compound 0.1 µM, first compound 0.003 µM) 51.2% | viability, T/C (second compound 0.1 µM, first compound 0.00949 µM) 42.3% | viability, T/C (second compound 0.1 µM, first compound 0.03 µM) 36.6% | viability, T/C (second compound 0.1 µM, first compound 0.0949 µM) 40.9% | viability, T/C (second compound 0.1 µM, first compound 0.3 µM) 28.5% | viability, T/C (second compound 0.316 µM, first compound 0.000949 µM) 43.9% | viability, T/C (second compound 0.316 µM, first compound 0.003 µM) 37.9% | viability, T/C (second compound 0.316 µM, first compound 0.00949 µM) 39.2% | viability, T/C (second compound 0.316 µM, first compound 0.03 µM) 36.7% | viability, T/C (second compound 0.316 µM, first compound 0.0949 µM) 31.6% | viability, T/C (second compound 0.316 µM, first compound 0.3 µM) 25.8% | viability, T/C (second compound 1 µM, first compound 0.000949 µM) 43.6% | viability, T/C (second compound 1 µM, first compound 0.003 µM) 41.9% | viability, T/C (second compound 1 µM, first compound 0.00949 µM) 39.7% | viability, T/C (second compound 1 µM, first compound 0.03 µM) 39% | viability, T/C (second compound 1 µM, first compound 0.0949 µM) 31.8% | viability, T/C (second compound 1 µM, first compound 0.3 µM) 24.4% | viability, T/C (second compound 3.16 µM, first compound 0.000949 µM) 39.3% | viability, T/C (second compound 3.16 µM, first compound 0.003 µM) 42.8% | viability, T/C (second compound 3.16 µM, first compound 0.00949 µM) 41% | viability, T/C (second compound 3.16 µM, first compound 0.03 µM) 34.3% | viability, T/C (second compound 3.16 µM, first compound 0.0949 µM) 28% | viability, T/C (second compound 3.16 µM, first compound 0.3 µM) 20.1% | viability, T/C (second compound 10 µM, first compound 0.000949 µM) 40.1% | viability, T/C (second compound 10 µM, first compound 0.003 µM) 40.7% | viability, T/C (second compound 10 µM, first compound 0.00949 µM) 33.8% | viability, T/C (second compound 10 µM, first compound 0.03 µM) 28.8% | viability, T/C (second compound 10 µM, first compound 0.0949 µM) 25.8% | viability, T/C (second compound 10 µM, first compound 0.3 µM) 22.7%
< 6.52: pIC50 [1]
> 9.02: pIC50 [3] | pIC50 [4] | pIC50 [5] | pIC50 [6]
8.68: pIC50 [2]

CCN1CCN(Cc2ccc(Nc3ncc(F)c(-c4cc(F)c5nc(C)n(C(C)C)c5c4)n3)nc2)CC1
inactive: viability, T/C (compound 0.00316 µM) 104% and 92% | viability, T/C (compound 0.01 µM) 125% and 93.7% | viability, T/C (compound 0.0316 µM) 111% and 103% | viability, T/C (compound 0.1 µM) 139% and 121% | viability, T/C (compound 0.316 µM) 158% and 189% | viability, T/C (compound 1 µM) 59.4% and 69.7%
< 6.00: pIC50 (curve of compound)

CC1COCCN1c1cc(C2(S(C)(=N)=O)CC2)nc(-c2ccnc3[nH]ccc23)n1 (stereo not given) + CNC(=O)c1ccc(Nc2nc(OC3CCCC3)c3c(-c4ccc5nc(C)oc5c4)c[nH]c3n2)c(OC)c1
> 7.50: pIC50 [3] | pIC50 [4] | pIC50 [6]
inactive: viability, T/C [7] 95.5% | viability, T/C [8] 91.2% | viability, T/C [9] 90.9% | viability, T/C [10] 98.4% | viability, T/C [11] 101% | viability, T/C [12] 78.7% | viability, T/C [13] 53.4% | viability, T/C [14] 57.4% | viability, T/C [15] 52.6% | viability, T/C [16] 51.8% | viability, T/C [17] 44.8% | viability, T/C [18] 36.6% | viability, T/C [19] 48.3% | viability, T/C [20] 45.4% | viability, T/C [21] 51.5% | viability, T/C [22] 46.7% | viability, T/C [23] 56.9% | viability, T/C [24] 36.1% | viability, T/C [25] 54.5% | viability, T/C [26] 44% | viability, T/C [27] 47% | viability, T/C [28] 46.4% | viability, T/C [29] 44.5% | viability, T/C [30] 31.7% | viability, T/C [31] 49.7% | viability, T/C [32] 49.6% | viability, T/C [33] 46.3% | viability, T/C [34] 39.8% | viability, T/C [35] 37.7% | viability, T/C [36] 29.5% | viability, T/C [37] 43.1% | viability, T/C [38] 37.4% | viability, T/C [39] 40.9% | viability, T/C [40] 36.9% | viability, T/C [41] 33.3% | viability, T/C [42] 30.9%
7.38: pIC50 [5]
5.91: pIC50 [2]
< 5.00: pIC50 [1]

CCCS(=O)(=O)Nc1ccc(F)c(C(=O)c2c[nH]c3ncc(-c4ccc(Cl)cc4)cc23)c1F
inactive: viability, T/C (compound 0.0316 µM) 22.5% and 95.7% | viability, T/C (compound 0.1 µM) 33.6% and 96.8% | viability, T/C (compound 0.316 µM) 104% and 98.2% | viability, T/C (compound 1 µM) 96% and 95.1% | viability, T/C (compound 3.16 µM) 29.5% and 104%
5.80 and 5.17: pIC50 (curve of compound)
0.01% and 24.1%: viability, T/C (compound 10 µM)

CNC(=O)c1ccc(Nc2nc(OC3CCCC3)c3c(-c4ccc5nc(C)oc5c4)c[nH]c3n2)c(OC)c1
177 nM [middle of 12 runs]: IC50 (compound alone, run of 08/01/2023)
inactive: viability, T/C (compound 0.0316 µM) 90.7% [middle of 12 runs] | viability, T/C (compound 0.1 µM) 55.7% [middle of 12 runs] | viability, T/C (compound 0.316 µM) 44.2% [middle of 12 runs] | viability, T/C (compound 1 µM) 45.1% [middle of 12 runs] | viability, T/C (compound 3.16 µM) 42.3% [middle of 12 runs] | viability, T/C (compound 10 µM) 40.3% [middle of 12 runs]
